Tests used:
[1] = target: Tyrosine-protein kinase JAK2 (Homo sapiens, UniProt O60674); assay: Inhibition of JAK2 (unknown origin) in presence of ATP at Km concentration by caliper assay
[2] = target: T1, Tyrosine-protein kinase JAK3 (Homo sapiens, UniProt P52333); assay: Inhibition of JAK3 (unknown origin) in presence of ATP at Km concentration by caliper assay
T1 sequence (P52333 whole entry): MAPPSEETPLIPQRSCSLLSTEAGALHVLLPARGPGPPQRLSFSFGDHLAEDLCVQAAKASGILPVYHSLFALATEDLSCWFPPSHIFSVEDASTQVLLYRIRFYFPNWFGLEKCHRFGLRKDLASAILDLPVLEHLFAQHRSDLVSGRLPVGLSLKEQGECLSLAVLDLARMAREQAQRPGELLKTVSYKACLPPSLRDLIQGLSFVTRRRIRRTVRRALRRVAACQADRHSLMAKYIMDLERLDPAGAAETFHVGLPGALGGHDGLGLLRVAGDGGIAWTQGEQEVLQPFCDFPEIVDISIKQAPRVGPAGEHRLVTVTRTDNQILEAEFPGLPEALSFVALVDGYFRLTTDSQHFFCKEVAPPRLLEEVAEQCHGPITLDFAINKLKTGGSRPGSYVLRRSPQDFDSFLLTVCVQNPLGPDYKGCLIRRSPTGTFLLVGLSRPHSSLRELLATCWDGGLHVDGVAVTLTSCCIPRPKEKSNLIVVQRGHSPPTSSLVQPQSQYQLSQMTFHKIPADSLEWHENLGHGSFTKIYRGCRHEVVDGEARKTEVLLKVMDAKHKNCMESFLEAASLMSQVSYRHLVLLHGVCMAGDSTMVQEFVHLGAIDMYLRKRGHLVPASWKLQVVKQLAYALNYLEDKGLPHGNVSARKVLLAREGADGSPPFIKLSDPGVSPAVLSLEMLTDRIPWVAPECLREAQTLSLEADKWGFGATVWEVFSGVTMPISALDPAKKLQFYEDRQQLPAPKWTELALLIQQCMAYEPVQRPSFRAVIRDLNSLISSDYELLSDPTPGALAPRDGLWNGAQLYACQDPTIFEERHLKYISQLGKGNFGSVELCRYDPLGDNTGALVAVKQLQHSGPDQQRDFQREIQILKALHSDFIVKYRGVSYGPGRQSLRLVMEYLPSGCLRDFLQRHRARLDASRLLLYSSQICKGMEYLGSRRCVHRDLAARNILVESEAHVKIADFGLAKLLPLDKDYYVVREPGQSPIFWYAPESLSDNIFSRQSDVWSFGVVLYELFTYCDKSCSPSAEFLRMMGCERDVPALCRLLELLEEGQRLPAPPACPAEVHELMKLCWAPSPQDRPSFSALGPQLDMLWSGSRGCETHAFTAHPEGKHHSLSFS

[3] = target: Tyrosine-protein kinase JAK1 (Homo sapiens, UniProt P23458); assay: Inhibition of JAK1 (unknown origin) in presence of ATP at Km concentration by caliper assay
Chain of Tyrosine-protein kinase JAK1 (P23458 whole entry): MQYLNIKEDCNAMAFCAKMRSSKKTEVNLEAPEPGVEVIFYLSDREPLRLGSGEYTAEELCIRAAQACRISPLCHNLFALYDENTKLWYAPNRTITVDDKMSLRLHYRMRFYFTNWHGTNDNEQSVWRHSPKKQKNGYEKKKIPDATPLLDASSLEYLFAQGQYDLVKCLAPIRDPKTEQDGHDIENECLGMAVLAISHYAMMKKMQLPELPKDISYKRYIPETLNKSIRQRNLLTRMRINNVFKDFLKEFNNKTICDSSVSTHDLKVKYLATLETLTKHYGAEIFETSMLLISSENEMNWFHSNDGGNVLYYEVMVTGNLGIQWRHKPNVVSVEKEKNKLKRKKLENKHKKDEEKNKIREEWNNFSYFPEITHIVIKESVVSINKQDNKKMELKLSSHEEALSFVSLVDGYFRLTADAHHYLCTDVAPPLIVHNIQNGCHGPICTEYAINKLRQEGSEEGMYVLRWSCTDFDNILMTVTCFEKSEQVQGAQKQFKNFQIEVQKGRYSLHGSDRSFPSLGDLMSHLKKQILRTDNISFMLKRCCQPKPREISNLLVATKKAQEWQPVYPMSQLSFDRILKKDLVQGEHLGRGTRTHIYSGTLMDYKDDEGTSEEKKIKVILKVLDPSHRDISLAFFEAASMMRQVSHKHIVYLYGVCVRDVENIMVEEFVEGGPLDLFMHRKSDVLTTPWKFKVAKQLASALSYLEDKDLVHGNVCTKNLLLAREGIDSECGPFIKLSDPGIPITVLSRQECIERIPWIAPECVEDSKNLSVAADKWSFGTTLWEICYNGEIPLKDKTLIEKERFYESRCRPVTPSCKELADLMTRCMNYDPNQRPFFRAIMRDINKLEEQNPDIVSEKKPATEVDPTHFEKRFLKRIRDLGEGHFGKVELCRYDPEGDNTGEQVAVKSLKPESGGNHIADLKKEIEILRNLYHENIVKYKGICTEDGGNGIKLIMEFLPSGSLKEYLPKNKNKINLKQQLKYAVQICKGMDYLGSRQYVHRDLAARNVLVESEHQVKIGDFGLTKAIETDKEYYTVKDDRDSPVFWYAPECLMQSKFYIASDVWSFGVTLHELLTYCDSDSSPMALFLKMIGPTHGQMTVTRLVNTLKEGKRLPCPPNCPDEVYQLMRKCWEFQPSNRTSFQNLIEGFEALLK

Chain of Tyrosine-protein kinase JAK2 (O60674 whole entry): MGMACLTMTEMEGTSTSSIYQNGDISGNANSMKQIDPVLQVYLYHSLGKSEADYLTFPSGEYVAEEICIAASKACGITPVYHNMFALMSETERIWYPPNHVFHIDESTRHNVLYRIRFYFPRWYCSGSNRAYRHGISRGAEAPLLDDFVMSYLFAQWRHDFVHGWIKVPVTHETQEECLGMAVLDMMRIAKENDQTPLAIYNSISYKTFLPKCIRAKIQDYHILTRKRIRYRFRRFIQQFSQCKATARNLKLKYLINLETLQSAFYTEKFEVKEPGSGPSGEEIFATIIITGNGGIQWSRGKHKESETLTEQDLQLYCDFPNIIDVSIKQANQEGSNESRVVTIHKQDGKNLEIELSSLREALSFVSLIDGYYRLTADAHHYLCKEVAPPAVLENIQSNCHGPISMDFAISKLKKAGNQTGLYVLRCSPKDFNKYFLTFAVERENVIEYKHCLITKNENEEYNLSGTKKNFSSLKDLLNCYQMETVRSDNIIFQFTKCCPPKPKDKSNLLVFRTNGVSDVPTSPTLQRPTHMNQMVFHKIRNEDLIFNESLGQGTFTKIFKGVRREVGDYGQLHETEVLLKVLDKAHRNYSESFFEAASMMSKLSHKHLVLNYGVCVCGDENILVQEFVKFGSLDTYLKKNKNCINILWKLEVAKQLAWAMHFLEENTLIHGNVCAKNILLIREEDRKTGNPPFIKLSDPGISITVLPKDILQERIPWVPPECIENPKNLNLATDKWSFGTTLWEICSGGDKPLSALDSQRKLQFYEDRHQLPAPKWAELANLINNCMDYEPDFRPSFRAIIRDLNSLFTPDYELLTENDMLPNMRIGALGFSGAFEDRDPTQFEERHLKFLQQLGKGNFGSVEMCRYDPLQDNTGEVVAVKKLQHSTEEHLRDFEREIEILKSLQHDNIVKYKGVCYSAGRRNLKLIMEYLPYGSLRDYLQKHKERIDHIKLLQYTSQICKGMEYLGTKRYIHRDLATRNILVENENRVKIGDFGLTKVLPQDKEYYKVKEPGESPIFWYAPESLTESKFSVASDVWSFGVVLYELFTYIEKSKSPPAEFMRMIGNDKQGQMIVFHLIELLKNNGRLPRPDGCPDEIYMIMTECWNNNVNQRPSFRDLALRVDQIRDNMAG

| SMILES | IC50 [1] [nM] | IC50 [2] [nM] | IC50 [3] [nM] |
| --- | --- | --- | --- |
| O=C(Nc1nc2cccc(C3=CCN(C(=O)C4(C(F)(F)F)CC4)CC3)n2n1)C1CC1 | 317 |  |  |
| C=CC(=O)N1CC=C(c2cccc3nc(NC(=O)C4CC4)nn23)CC1 | 424 |  |  |
| O=C(Nc1nc2cccc(-c3ccc(C(=O)N4CC(F)(F)C4)cc3)n2n1)C1CC1 | 139 | 941 | 124 |
| N#CCNC(=O)N1CC=C(c2cccc3nc(NC(=O)C4CC4)nn23)CC1 | 175 |  |  |
| O=C(Nc1nc2cccc(C3=CCN(C(=O)NCC(F)(F)F)CC3)n2n1)C1CC1 | 347 | 1740 | 234 |
| N#CC1(C(=O)N2CC=C(c3cccc4nc(NC(=O)C5CC5)nn34)CC2)CC1 | 441 |  |  |
| O=C(Nc1nc2cccc(C3=CCN(C(=O)C4CC4(F)F)CC3)n2n1)C1CC1 (configuration not stated) | 192 |  |  |
| N#CCNC(=O)c1ccc(-c2cccc3nc(NC(=O)C4CC4)nn23)cc1 | 299 |  |  |
| N#CCC(=O)N1CC=C(c2cccc3nc(NC(=O)C4CC4)nn23)CC1 | 157 |  |  |
| C=C(C#N)C(O)c1ccc(-c2cccc3nc(NC(=O)C4CC4)nn23)cc1 (configuration not stated) | 55 |  |  |
| O=C(NCC(F)(F)F)c1ccc(-c2cccc3nc(NC(=O)C4CC4)nn23)cc1 | 214 | 1020 | 230 |

Source: ChEMBL document CHEMBL4622902, “Discovery of triazolo [1,5-a] pyridine derivatives as novel JAK1/2 inhibitors” (Bioorg Med Chem Lett, 2020)
